Laboratory results: patent publication US7026134B2 (priority 2001, dated 2006)
Converted amounts (≈) assume the structure as drawn. Like-named read-outs stand apart in the source and are kept apart here.

Legend:
[1] = tested on: IgG fraction of the antiserum raised to immunogen A (hapten A-BSA); assay type: binding, sheep; settings: for IC50, OP: concentration of test opiate that causes 50% displacement of signal, Table 3, Example 13 (a); for IC50: standard concentration which produces 50% B/B0
Protocol: Aqueous solutions of the immunogens prepared in Examples 7 and 8 were formulated with Freund's Complete Adjuvant (FCA) to form emulsions consisting of 4 mg/ml immunogen A and 2 mg/ml immunogen B in 50% (v/v) FCA. Three sheep were immunized with each emulsion (1° immunizations), 0.25 ml being subcutaneously injected at each of four sites in the flank of each animal. The next immunizations (first boosts) contained 2 mg/ml immunogen A and 1 mg/ml immunogen B. Subsequent immunizations (boosts […]) contained 1 mg/ml of each immunogen. All boosts were emulsified in 50% (v/v) Freund's Incomplete Adjuvant (FIA) and administered to the appropriate sheep in the same manner as the 1° immunizations, at monthly intervals for 1 year. Blood sampling took place 7 to 14 days after each boost. Each sample was processed to produce antiserum which was further purified by caprylic acid and ammonium sulfate precipitation to yield an immunoglobulin G (IgG) fraction. The IgG fraction was evaluated by competitive ELISA microtiter plate assay, as described in Example 12 below.
(a) The wells of an enhanced binding 96-well polystyrene microtiter plate were coated with the IgG fraction of the antiserum raised to immunogen A (hapten A-BSA) (Example 7), diluted in 10 mM Tris, pH8.5 (125 μl/well). The appropriate antibody coating dilution was determined using standard ELISA chequerboard techniques. The plate was incubated for 2 hours at 37° C., washed 4 times with Tris-buffered saline containing Tween 20 (TBST) and tapped dry. […] 75 μl of conjugate A (hapten A-HRP) (Example 10), diluted in Tris buffer containing EDTA, D-mannitol, sucrose, thimerosal and BSA, was added to each of the wells. The appropriate dilution of conjugate was also determined using standard ELISA chequerboard techniques. The plate was incubated at 37° C. for 2 hours. The excess unbound conjugate was removed by washing 6 times over a 10 minute period with TBST. 125 μl of tetramethylbenzedine (TMB) substrate solution was added to each well of the plate that was then incubated for 15 to 20 minutes in the dark at room temperature. The reaction was terminated by addition of 125 μl 0.2M H2SO4 to each well. The absorbance was then measured at 450 nm using a microtiter plate reader.

[2] = tested on: IgG fraction of the antiserum raised to immunogen B (hapten B-BSA); assay type: binding, sheep; settings: for IC50, OP: concentration of test opiate that causes 50% displacement of signal, Table 3, Example 13 (b); for IC50: standard concentration which produces 50% B/B0
[3] = percentage cross-reactivity based on specificity to oxycodone, Table 1
[4] = standard concentration 0.5 ng/ml
[5] = standard concentration 25 ng/ml
[6] = standard concentration 100 ng/ml
[7] = standard concentration 250 ng/ml
[8] = standard concentration 500 ng/ml
[9] = percentage cross-reactivity based on specificity to oxycodone, Table 2
[10] = standard concentration 10 ng/ml
[11] = standard concentration 50 ng/ml
[12] = standard concentration 1000 ng/ml
[13] = standard concentration 2000 ng/ml

Q: Which results are given for COc1ccc2c3c1O[C@H]1C(=O)CC[C@H]4[C@@H](C2)N(C)CC[C@]314 [Hydrocodone]?
A: % CR [1]: <1.7%; IC50, OP [1]: >0.5 µg/mL; % CR [2]: 75.6%; IC50, OP [2]: 0.0724 µg/mL (≈ 0.242 µM)

Q: Which “% CR” value [1, 3] does the source give for COc1ccc2c3c1O[C@H]1C(=O)CC[C@@]4(O)[C@@H](C2)N(C)CC[C@]314 [Oxycodone] here?
A: The value was 100.0%.

Q: And the “% B/B0” value [1, 4]?
A: Its value is 88.6%.

Q: What about the “% B/B0” value ([1]; standard concentration 1 ng/ml) of the same compound?
A: The value was 82.2%.

Q: And the “% B/B0” value [1, 5]?
A: The value was 36.1%.

Q: And the “% B/B0” value [1, 6]?
A: Its value is 22.2%.

Q: And the “% B/B0” value [1, 7]?
A: The value was 14.8%.

Q: And the “% B/B0” value [1, 8]?
A: Its value is 10.1%.

Q: What about the IC50 ([1]; Table 1) of the same compound?
A: Its IC50 is 0.0087 µg/mL (≈ 0.0276 µM).

Q: And the “% CR” value [2, 9]?
A: The value was 100.0%.

Q: And the “% B/B0” value [2, 10]?
A: Its value is 75.7%.

Q: What about the “% B/B0” value [2, 11] of the same compound?
A: The value was 50.1%.

Q: And the “% B/B0” value [2, 6]?
A: The value was 41.9%.

Q: What about the “% B/B0” value [2, 8] of the same compound?
A: The value was 17.8%.

Q: And the “% B/B0” value [2, 12]?
A: The value was 12.2%.

Q: What about the “% B/B0” value [2, 13] of the same compound?
A: Its value is 8.3%.

Q: What does the source list for COc1ccc2c3c1O[C@H]1[C@@H](O)CC[C@H]4[C@@H](C2)N(C)CC[C@@]341 [Dihydrocodone]?
A: % CR [1]: <1.7%; IC50, OP [1]: >0.5 µg/mL; % CR [2]: <2.7%; IC50, OP [2]: >2 µg/mL

Q: Which results are given for CN1CC[C@]23c4c5ccc(O)c4O[C@H]2C(=O)CC[C@@]3(O)[C@H]1C5 [Oxymorphone]?
A: % CR [1, 3]: 26.5%; % B/B0 [1, 4]: 93.0%; % B/B0 ([1]; standard concentration 1 ng/ml): 90.5%; % B/B0 ([1]; standard concentration 5 ng/ml): 75.1%; % B/B0 [1, 5]: 57.1%; % B/B0 [1, 6]: 39.2%; % B/B0 [1, 7]: 29.2%; % B/B0 [1, 8]: 24.4%; IC50 ([1]; Table 1): 0.0328 µg/mL (≈ 0.109 µM); % CR [2, 9]: <2.7%; % B/B0 [2, 10]: 103.8%; % B/B0 [2, 11]: 97.3%; % B/B0 [2, 6]: 95.0%; % B/B0 [2, 7]: 93.5%; % B/B0 [2, 8]: 90.1%; % B/B0 [2, 12]: 84.2%; % B/B0 [2, 13]: 76.7%; IC50 ([2]; Table 2): >2 µg/mL

Q: What does the source list for COc1ccc2c3c1O[C@H]1[C@@H](O)C=C[C@H]4[C@@H](C2)N(C)CC[C@@]341 [Codeine]?
A: % CR [1]: 2.2%; IC50, OP [1]: 0.3867 µg/mL (≈ 1.29 µM); % CR [2]: <2.7%; IC50, OP [2]: >2 µg/mL

Q: Which “% CR” value [1, 3] does the source give for COc1ccc2c3c1O[C@H]1C(=O)CC[C@@]4(O)[C@@H](C2)NCC[C@]314 [Noroxycodone] here?
A: The value was <1.7%.

Q: And the “% B/B0” value [1, 4]?
A: Its value is 99.3%.

Q: And the “% B/B0” value ([1]; standard concentration 1 ng/ml)?
A: The value was 100.2%.

Q: And the “% B/B0” value ([1]; standard concentration 5 ng/ml)?
A: The value was 100.3%.

Q: What about the “% B/B0” value [1, 5] of the same compound?
A: The value was 99.3%.

Q: What about the “% B/B0” value [1, 6] of the same compound?
A: Its value is 97.7%.

Q: And the “% B/B0” value [1, 7]?
A: The value was 96.1%.

Q: What about the “% B/B0” value [1, 8] of the same compound?
A: The value was 92.8%.

Q: And the IC50 ([1]; Table 1)?
A: The IC50 was >0.5 µg/mL.

Q: And the “% CR” value [2, 9]?
A: The value was 23.4%.

Q: What about the “% B/B0” value [2, 10] of the same compound?
A: The value was 90.7%.

Q: And the “% B/B0” value [2, 11]?
A: Its value is 70.9%.

Q: And the “% B/B0” value [2, 6]?
A: Its value is 65.0%.

Q: What about the “% B/B0” value [2, 7] of the same compound?
A: Its value is 52.0%.

Q: And the “% B/B0” value [2, 8]?
A: Its value is 43.7%.

Q: And the “% B/B0” value [2, 12]?
A: Its value is 32.5%.

Q: And the “% B/B0” value [2, 13]?
A: The value was 24.4%.

Q: And the IC50 ([2]; Table 2)?
A: The IC50 was 0.2335 µg/mL (≈ 0.775 µM).

Q: What does the source list for CN1CC[C@]23c4c5ccc(O)c4O[C@H]2[C@@H](O)C=C[C@H]3[C@H]1C5 [Morphine]?
A: % CR [1]: <1.7%; % CR [2]: <2.7%

Q: CN1CC[C@]23c4c5ccc(O[C@@H]6O[C@H](C(=O)O)[C@@H](O)[C@H](O)[C@H]6O)c4O[C@H]2[C@@H](O)C=C[C@H]3[C@H]1C5 [Morphine-3-glucuronide] was tested. Which “% CR” value [1] did it give?
A: Its value is <1.7%.

Q: What about the “IC50, OP” value [1] of the same compound?
A: The value was >0.5 µg/mL.

Q: What about the “% CR” value [2] of the same compound?
A: The value was <2.7%.

Q: And the “IC50, OP” value [2]?
A: Its value is >2 µg/mL.

Q: COC1=CC=C2[C@H]3Cc4ccc(OC)c5c4[C@@]2(CCN3C)[C@H]1O5 [Thebaine] was tested. Which “% CR” value [1] did it give?
A: Its value is 4.3%.

Q: And the “IC50, OP” value [1]?
A: Its value is 0.2032 µg/mL (≈ 0.653 µM).

Q: And the “% CR” value [2]?
A: The value was <2.7%.

Q: And the “IC50, OP” value [2]?
A: Its value is >2 µg/mL.
